Experimental data published in patent US20090156577A1, “7-AMINO ALKYLIDENYL-HETEROCYCLIC QUINOLONES AND NAPHTHYRIDONES” (priority 2004, published 2009).
Values after ≈ are worked out from the molar mass of the structure shown. Counter-ions that a name gives are not always drawn. Like-named read-outs stand apart in the source and are kept apart here.

Tested on: pathogenic bacteria
Experiment: MIC by microdilution broth method (NCCLS M7-A4), in vitro antibacterial activity
Type: cell-based
Procedure, shortened: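 MIC read after 35 °C incubation for 16–20 h relative to drug-free growth wells. Cation-adjusted Mueller-Hinton broth with two-fold compound dilutions, organisms at roughly 5×10^4 CFU/well final. Method follows NCCLS document M7-A4.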

[1] = Streptococcus pneumoniae, Organism C: fluoroquinolone-resistant clinical isolate of Streptococcus pneumoniae (QRDR amino acid substitutions)
[2] = Streptococcus pneumoniae, Organism D: fluoroquinolone-resistant clinical isolate of Streptococcus pneumoniae (QRDR amino acid substitutions)
[3] = Staphylococcus aureus, Organism A: Staphylococcus aureus OC4172, read-out: MIC
[4] = Streptococcus pneumoniae, ATCC49619, Organism E: Streptococcus pneumoniae ATCC 49619, read-out: MIC
[5] = Streptococcus pneumoniae, Organism B: fluoroquinolone-resistant clinical isolate of Streptococcus pneumoniae (QRDR amino acid substitutions)

SMILES	MIC (Staphylococcus aureus, Organism A: Staphylococcus aureus OC4172) [µg/mL]	MIC (Streptococcus pneumoniae, ATCC49619, Organism E: Streptococcus pneumoniae ATCC 49619) [µg/mL]	MIC [1] [µg/mL]	MIC [2] [µg/mL]	MIC [3] [µg/mL]	MIC [4] [µg/mL]	MIC [5] [µg/mL]	MIC (Organism C: fluoroquinolone-resistant clinical isolate of Streptococcus pneumoniae (QRDR amino acid substitutions)) [µg/mL]	MIC (Organism E: Streptococcus pneumoniae ATCC 49619) [µg/mL]
O=C(O)c1cn(C2CC2)c2nc(N3CCC(=C(Cl)CN4CCNCC4)CC3)c(F)cc2c1=O [Compound 292, 7-[4-(1-chloro-2-piperazin-1-yl-ethylidene)-piperidin-1-yl]-1-cyclopropyl-6-fluoro-4-oxo-1,4-dihydro-[1,8]naphthyridine-3-carboxylic Acid Trifluoroacetic Acid Salt]	1	4	> 16	16	–	–	–	–	–
O=CN1CCN(CC(Cl)=C2CCN(c3nc4c(cc3F)c(=O)c(C(=O)O)cn4C3CC3)CC2)CC1 [Compound 291, 7-{4-[1-Chloro-2-(4-formyl)-piperazin-1-yl-ethylidene]-piperidin-1-yl}-1-cyclopropyl-6-fluoro-4-oxo-1,4-dihydro-[1,8]naphthyridine-3-carboxylic Acid Trifluoroacetic Acid Salt]	–	–	> 16	8	2	8	–	–	–
C[C@H]1COc2c(N3CCC/C(=C(\Cl)CN)C3)c(F)cc3c(=O)c(C(=O)O)cn1c23 [Compound 400, (E)-9-[3-(2-Amino-1-chloro-ethylidene)-piperidin-1-yl]-8-fluoro-(3S)-3-methyl-6-oxo-2,3-dihydro-6H-1-oxa-3a-aza-phenalene-5-carboxylic acid]	–	–	0.5 (≈ 1.19 µM)	0.5 (≈ 1.19 µM)	≤ 0.015	0.06 (≈ 0.142 µM)	0.25 (≈ 0.593 µM)	–	–
CCOC(=O)OCC(F)=C1CCN(c2nc3c(cc2F)c(=O)c(C(=O)O)cn3C2CC2)CC1 [Compound 179, 1-Cyclopropyl-7-[4-(2-ethoxycarbonyloxy-1-fluoro-ethylidene)-piperidin-1-yl]-6-fluoro-4-oxo-1,4-dihydro-[1,8]naphthyridine-3-carboxylic acid]	–	–	> 16	> 16	0.5 (≈ 1.08 µM)	2 (≈ 4.32 µM)	> 16	–	–
NC/C(F)=C1\COCCN(c2cc3c(cc2F)c(=O)c(C(=O)O)cn3C2CC2)C1 [Compound 504, (E)-7-[6-(2-Amino-1-fluoro-ethylidene)-[1,4]oxazepan-4-yl]-1-cyclopropyl-6-fluoro-4-oxo-1,4-dihydro-quinoline-3-carboxylic acid]	–	–	8 (≈ 19.7 µM)	4 (≈ 9.87 µM)	2 (≈ 4.93 µM)	16 (≈ 39.5 µM)	–	–	–
NC/C=C1/CCCN(c2c(F)cc3c(=O)c(C(=O)O)cn(C4CC4)c3c2OC(F)F)C1 [Compound 396, (Z)-7-[3-(2-Amino-ethylidene)-piperidin-1-yl]-1-cyclopropyl-8-difluoromethoxy-6-fluoro-4-oxo-1,4-dihydro-quinoline-3-carboxylic acid]	–	–	4 (≈ 9.14 µM)	0.5 (≈ 1.14 µM)	0.03 (≈ 0.0686 µM)	0.25 (≈ 0.572 µM)	2 (≈ 4.57 µM)	–	–
NCC(Cl)=C1CN(c2nc3c(cc2F)c(=O)c(C(=O)O)cn3C2CC2)C1 [Compound 81, 7-[3-(2-Amino-1-chloro-ethylidene)-azetidin-1-yl}-1-cyclopropyl-6-fluoro-4-oxo-1,4-dihydro-[1,8]naphthyridine-3-carboxylic acid]	–	–	2 (≈ 5.28 µM)	2 (≈ 5.28 µM)	0.06 (≈ 0.158 µM)	0.25 (≈ 0.66 µM)	1 (≈ 2.64 µM)	–	–
Cc1c(F)c(N2CCC/C(=C(\F)CN)C2)cc2c1c(=O)c(C(=O)O)cn2C1CC1 [Compound 424, (E)-7-[3-(2-Amino-1-fluoro-ethylidene)-piperidin-1-yl]-1-cyclopropyl-6-fluoro-5-methyl-4-oxo-1,4-dihydro-quinoline-3-carboxylic acid]	–	–	0.5 (≈ 1.24 µM)	≤ 1	≤ 0.015	≤ 1	0.06 (≈ 0.149 µM)	–	–
NCC(F)=C1CN(c2cc3c(cc2F)c(=O)c(C(=O)O)cn3C2CC2)C1 [Compound 272, 7-[3-(2-amino-1-fluoro-ethylidene)-azetidin-1-yl]-1-cyclopropyl-6-fluoro-4-oxo-1,4-dihydro-quinoline-3-carboxylic acid]	–	–	0.5 (≈ 1.38 µM)	–	≤ 0.015	0.5 (≈ 1.38 µM)	4 (≈ 11.1 µM)	–	–
NC/C(Cl)=C1\CCCN(c2nc3c(cc2F)c(=O)c(C(=O)O)cn3C2CC2)C1 [Compound 255, (Z)-7-[3-(2-Amino-1-chloro-ethylidene)-piperidin-1-yl]-1-cyclopropyl-6-fluoro-4-oxo-1,4-dihydro-[1,8]naphthyridine-3-carboxylic acid]	–	–	4 (≈ 9.83 µM)	16 (≈ 39.3 µM)	0.5 (≈ 1.23 µM)	4 (≈ 9.83 µM)	2 (≈ 4.92 µM)	–	–
C[C@H]1COc2c(N3CCOC/C(=C(\F)CN)C3)c(F)cc3c(=O)c(C(=O)O)cn1c23 [Compound 493, 9-[(Z)-6-(2-Amino-1-fluoro-ethylidene)-[1,4]oxazepan-4-yl]-8-fluoro-(3S)-3-methyl-6-oxo-2,3-dihydro-6H-1-oxa-3a-aza-phenalene-5-carboxylic Acid]	–	–	> 16	1 (≈ 2.37 µM)	0.06 (≈ 0.142 µM)	0.5 (≈ 1.19 µM)	–	–	–
C/C(CN)=C1\CCCN(c2c(F)cc3c(=O)c(C(=O)O)cn(-c4nc(N)c(F)cc4F)c3c2Cl)C1 [Compound 422, (Z)-1-(6-Amino-3,5-difluoro-pyridin-2-yl)-7-[3-(2-amino-1-methyl-ethylidene)-piperidin-1-yl]-8-chloro-6-fluoro-4-oxo-1,4-dihydro-quinoline-3-carboxylic acid]	–	–	> 16	> 16	0.12 (≈ 0.236 µM)	1 (≈ 1.97 µM)	> 16	–	–
COc1c(N2CCC(=C(F)CCN)CC2)c(F)cc2c(=O)c(C(=O)O)cn(C3CC3)c12 [Compound 467, 7-{4-[3-Amino-1-fluoro-propylidene]-piperidin-1-yl}-1-cyclopropyl-6-fluoro-8-methoxy-4-oxo-1,4-dihydro-quinoline-3-carboxylic Acid]	–	–	4 (≈ 9.23 µM)	1 (≈ 2.31 µM)	0.12 (≈ 0.277 µM)	0.5 (≈ 1.15 µM)	0.5 (≈ 1.15 µM)	–	–
COc1c(N2CC(=C(C)CN)C2)c(F)cc2c(=O)c(C(=O)O)cn([C@@H]3C[C@@H]3F)c12 [Compound 368, 7-[3-(2-Amino-1-methyl-ethylidene)-azetidin-1-yl]-6-fluoro-(1R,2S)-1-(2-fluoro-cyclopropyl)-8-methoxy-4-oxo-1,4-dihydro-quinoline-3-carboxylic Acid]	–	–	> 16	8 (≈ 19.7 µM)	0.25 (≈ 0.617 µM)	1 (≈ 2.47 µM)	8 (≈ 19.7 µM)	–	–
CNCC(Cl)=C1CN(c2c(F)cc3c(=O)c(C(=O)O)cn(-c4nc(N)c(F)cc4F)c3c2Cl)C1 [Compound 360, 1-(6-Amino-3,5-difluoro-pyridin-2-yl)-8-chloro-7-[3-(1-chloro-2-methylamino-ethylidene)-azetidin-1-yl]-6-fluoro-4-oxo-1,4-dihydro-quinoline-3-carboxylic Acid]	–	–	8 (≈ 15.6 µM)	8 (≈ 15.6 µM)	0.06 (≈ 0.117 µM)	0.5 (≈ 0.972 µM)	16 (≈ 31.1 µM)	–	–
CC(CN)=C1CN(c2c(F)cc3c(=O)c(C(=O)O)cn(-c4nc(N)c(F)cc4F)c3c2Cl)C1 [Compound 421, 1-(6-Amino-3,5-difluoro-pyridin-2-yl)-7-[3-(2-amino-1-methyl-ethylidene)-azetidin-1-yl]-8-chloro-6-fluoro-4-oxo-1,4-dihydro-quinoline-3-carboxylic acid]	–	–	2 (≈ 4.17 µM)	1 (≈ 2.08 µM)	0.06 (≈ 0.125 µM)	0.25 (≈ 0.521 µM)	–	–	–
NCC(Cl)=C1CN(c2c(F)cc3c(=O)c(C(=O)O)cn(-c4nc(N)c(F)cc4F)c3c2Cl)C1 [Compound 268, 7-[3-(2-Amino-1-chloro-ethylidene)-azetidin-1-yl]-1-(6-amino-3,5-difluoro-pyridin-2-yl)-8-chloro-6-fluoro-4-oxo-1,4-dihydro-quinoline-3-carboxylic Acid]	–	–	0.12 (≈ 0.24 µM)	0.12 (≈ 0.24 µM)	≤ 0.015	0.03 (≈ 0.06 µM)	0.06 (≈ 0.12 µM)	–	–
Cc1c(N2CCC(=C(Cl)CN)CC2)c(F)cc2c(=O)c(C(=O)O)cn(C3CC3)c12 [Compound 371, 7-[4-(2-Amino-1-chloro-ethylidene)-piperidin-1-yl]-1-cyclopropyl-6-fluoro-8-methyl-4-oxo-1,4-dihydro-quinoline-3-carboxylic Acid]	–	–	0.12 (≈ 0.286 µM)	0.12 (≈ 0.286 µM)	≤ 0.015	0.03 (≈ 0.0714 µM)	0.06 (≈ 0.143 µM)	–	–
COc1c(N2CCC(=C(Cl)CN(C)C)CC2)c(F)cc2c(=O)c(C(=O)O)cn(C3CC3)c12 [Compound 191, 7-[4-(1-Chloro-2-dimethylamino-ethylidene)-piperidin-1-yl]-1-cyclopropyl-6-fluoro-8-methoxy-4-oxo-1,4-dihydro-quinoline-3-carboxylic acid]	–	–	8 (≈ 17.2 µM)	2 (≈ 4.31 µM)	0.25 (≈ 0.539 µM)	0.5 (≈ 1.08 µM)	8 (≈ 17.2 µM)	–	–
CNCC(C)=C1CCN(c2c(F)cc3c(=O)c(C(=O)O)cn(C4CC4)c3c2OC(F)F)CC1 [Compound 74, 1-Cyclopropyl-8-difluoromethoxy-6-fluoro-7-[4-(1-methyl-2-methylamino-ethylidene)-piperidin-1-yl]-4-oxo-1,4-dihydro-quinoline-3-carboxylic acid]	–	–	–	0.25 (≈ 0.537 µM)	0.06 (≈ 0.129 µM)	–	–	1 (≈ 2.15 µM)	0.12 (≈ 0.258 µM)
Cc1c(F)c(N2CCC/C(=C\CN)C2)cc2c1c(=O)c(C(=O)O)cn2C1CC1 [Compound 451, (E)-7-[3-(2-Amino-ethylidene)-piperidin-1-yl]-1-cyclopropyl-6-fluoro-5-methyl-4-oxo-1,4-dihydro-quinoline-3-carboxylic acid]	–	–	16 (≈ 41.5 µM)	1 (≈ 2.59 µM)	0.25 (≈ 0.649 µM)	1 (≈ 2.59 µM)	–	–	–
COc1c(N2CCC/C(=C(/Cl)CN)C2)c(F)cc2c(=O)c(C(=O)O)cn(C3CC3)c12 [Compound 446, (Z)-7-[3-(2-Amino-1-chloro-ethylidene)-piperidin-1-yl]-1-cyclopropyl-6-fluoro-8-methoxy-4-oxo-1,4-dihydro-quinoline-3-carboxylic acid]	–	–	4 (≈ 9.18 µM)	4 (≈ 9.18 µM)	0.25 (≈ 0.574 µM)	1 (≈ 2.29 µM)	–	–	–
